Experimental findings from patent US11873298B2, “Compounds and uses thereof” (JANSSEN PHARMACEUTICA NV, priority 2017, dated 2024) are described below.

Assay [1] concerns the target T1, SCD1 (Homo sapiens, UniProt O00767).
T1 construct: host or cells: S. cerevisiae ole1Δ strain (W303 pdr1Δ pdr3Δ background), plasmid pRS316 with TDH3 promoter and CYC1 terminator
T1 sequence (O00767 1-359): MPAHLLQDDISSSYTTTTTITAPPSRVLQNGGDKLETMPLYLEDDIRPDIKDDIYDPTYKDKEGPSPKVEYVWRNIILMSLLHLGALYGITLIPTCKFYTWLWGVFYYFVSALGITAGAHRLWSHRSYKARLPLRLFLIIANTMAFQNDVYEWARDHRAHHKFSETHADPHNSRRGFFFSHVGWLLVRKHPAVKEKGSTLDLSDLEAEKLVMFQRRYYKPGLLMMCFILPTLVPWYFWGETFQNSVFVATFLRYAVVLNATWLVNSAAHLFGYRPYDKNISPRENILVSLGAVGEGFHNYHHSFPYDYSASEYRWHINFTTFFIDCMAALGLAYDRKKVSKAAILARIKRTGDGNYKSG
The assay can be described thus: Growth inhibition of humanized yeast strain expressing SCD1 as sole desaturase. In kind it is cell-based. In a few lines: (§1)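 ole1Δ yeast (W303 pdr1Δ pdr3Δ background) carrying plasmid-borne Ole1, SCD1 or SCD5, grown in uracil-free media; cultures pre-grown in raffinose, seeded at 2× density 0.02 in galactose media with compound. Growth read as OD600 after 24 h at 30° C. for Ole1, 40 h for SCD1/SCD5.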

For assay [2], the target named is T2, SCD5 (Homo sapiens, UniProt Q86SK9).
T2 construct: host or cells: S. cerevisiae ole1Δ strain (W303 pdr1Δ pdr3Δ background), plasmid pRS316 with TDH3 promoter and CYC1 terminator
T2 sequence (Q86SK9 1-330): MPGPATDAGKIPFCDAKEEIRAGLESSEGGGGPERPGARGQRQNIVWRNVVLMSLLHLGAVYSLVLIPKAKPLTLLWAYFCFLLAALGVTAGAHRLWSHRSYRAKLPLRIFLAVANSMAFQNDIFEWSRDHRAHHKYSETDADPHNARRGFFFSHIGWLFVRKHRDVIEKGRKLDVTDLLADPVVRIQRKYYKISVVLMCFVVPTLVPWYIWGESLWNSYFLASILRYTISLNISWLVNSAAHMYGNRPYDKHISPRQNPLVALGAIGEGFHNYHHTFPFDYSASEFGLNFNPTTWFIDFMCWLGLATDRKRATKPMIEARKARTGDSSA
In words: Growth inhibition of humanized yeast strain expressing SCD5 as sole desaturase. The format is cell-based. In a few lines:
as §1

Where [3] appears, read: growth inhibition of humanized yeast strain expressing human SCD1.
Setting [4] is: growth inhibition of humanized yeast strain expressing human SCD5.
Setting [5] is: humanized yeast strain expressing SCD1.
[6] abbreviates: humanized yeast strain expressing SCD5.

Structures are written as SMILES.

Turning to `CC(C)(C)OC(=O)N1CCC(c2noc(-c3ccnc(C4CCCO4)c3)n2)CC1` (stereo not shown) [Compound 1003], the IC50 was over 45 µM in assay [1] (humanized yeast strain, 40 h) and 0.457 µM in assay [2] (humanized yeast strain, 40 h).

For the molecule `COC(=O)N1CCC(c2nnc(-c3ccc4cnn(C5COC5)c4c3)o2)CC1` [Compound 871], the IC50 in assay [1] (humanized yeast strain, 40 h) is over 45 µM; in assay [2] (humanized yeast strain, 40 h), 9.54 µM.

With `CC(C)(C)OC(=O)N1CCC(c2noc(-c3cncc(C4CCOC4)c3)n2)CC1` (stereo not shown) [Compound 1190], the IC50 in assay [1] (humanized yeast strain, 40 h) was over 45 µM; in assay [2] (humanized yeast strain, 40 h), 0.06 µM.

As for `COC(=O)N1CCC(c2cc(-c3cc4c(cn3)cnn4C(C)C)no2)CC1` [Compound 1088], the IC50 was over 45 µM in assay [1] (humanized yeast strain, 40 h) and 2.52 µM in assay [2] (humanized yeast strain, 40 h).

`O=C(OC1CC1)N1CCC(c2nc(-c3ccc4cnn(C5COC5)c4c3)no2)CC1` [Compound 618]: the 50% inhibitory concentration (IC50) in assay [1] (setting [3]) was over 45 µM; in assay [2] (setting [4]), 0.101 µM.

Take `CC(C)(C)OC(=O)N1CCC(c2nc(-c3ccc4cnn([C@H]5C[C@@H](O)C5)c4c3)no2)CC1` [Compound 823]: the IC50 in assay [1] (humanized yeast strain, 40 h) was over 45 µM; in assay [2] (humanized yeast strain, 40 h), 0.119 µM.

In the case of `CC(C)C(=O)N1CCC(c2noc(N3CCc4c(cnn4C4COC4)C3)n2)CC1` [Compound 1194], the IC50 in assay [1] (humanized yeast strain, 40 h) is over 45 µM; in assay [2] (humanized yeast strain, 40 h), over 45 µM.

As for `Cc1nn(C)c2cc(-c3noc(C4CCN(C(=O)CCC(F)(F)F)CC4)n3)ccc12` [Compound 518], the IC50 in assay [1] (setting [5]) was over 45 µM; in assay [2] (setting [6]), 2.95 µM.

Consider `C[C@@H]1CN(c2noc(-c3ccc4cnn(C5COC5)c4c3)n2)CCN1C(=O)OC(C)(C)C` [Compound 959], for which the IC50 is over 45 µM in assay [1] (humanized yeast strain, 40 h) and over 45 µM in assay [2] (humanized yeast strain, 40 h).

On to `CC(C)n1ncc2ccc(-c3noc(C4CCN(C(=O)CNC(=O)c5cccc(C#N)c5)CC4(F)F)n3)cc21` (stereo not shown) [Compound 523], for which the IC50 in assay [1] (setting [5]) and in assay [2] (setting [6]) was over 45 µM in each case.

As for `COC(=O)N1CCC(c2nc(-c3ccc4cnn(C5CCOC5)c4c3)no2)CC1` (stereo not shown) [Compound 776], the IC50 was over 45 µM in assay [1] (humanized yeast strain, 40 h) and 0.025 µM in assay [2] (humanized yeast strain, 40 h).

In the case of `Cc1nn(C)c2cc(-c3noc(C4CCN(C(=O)CNC(=O)c5cccc(Cl)c5)CC4(F)F)n3)ccc12` (stereo not shown) [Compound 603], the IC50 in assay [1] (setting [5]) turned out to be 7.26 µM; in assay [2] (setting [6]), 2.41 µM.

`CC(CF)n1ncc2ccc(-c3noc(C4CCN(C(=O)CC(C)(C)C)CC4)n3)cc21` (stereo not shown) [Compound 583]: the half-maximal inhibitory concentration (IC50) in assay [1] (setting [5]) was over 45 µM; in assay [2] (setting [6]), 0.989 µM.

In the case of `CC(C)n1nc(CCO)c2ccc(-c3noc(C4CCN(C(=O)OC(C)(C)C)CC4)n3)cc21` [Compound 699], the IC50 in assay [1] (setting [3]) was over 45 µM; in assay [2] (setting [4]) it was 7.65 µM.

Turning to `CC(C)(C)OC(=O)N1CCC(N2CCN(c3ccc4cnn(C5COC5)c4c3)C2=O)CC1` [Compound 810], the IC50 was over 45 µM in assay [1] (humanized yeast strain, 40 h) and 2.5 µM in assay [2] (humanized yeast strain, 40 h).

With `COC(=O)N1CCC(c2cc(-c3cc4c(cn3)cnn4C3COC3)on2)CC1` [Compound 1111], the IC50 in assay [1] (humanized yeast strain, 40 h) was over 45 µM; in assay [2] (humanized yeast strain, 40 h), 0.179 µM.

As for `CC(C)n1ncc2ccc(-c3noc(C4CCN(C(=O)COc5ccccc5)CC4)n3)cc21` [Compound 358], in assay [1] (setting [5]), the “SCD1 % Max Inhibition” value is 59.61%. For the same molecule, in assay [2] (setting [6]), the IC50 is over 45 µM and the “SCD5 % Max Inhibition” value worked out at 4.53%.

With `CC1(C(=O)N2CCN(c3nc(-c4ccc5cnn(C6COC6)c5c4)no3)CC2)CCOC1` (stereo not shown) [Compound 924], the IC50 was over 45 µM in assay [1] (humanized yeast strain, 40 h) and 4.09 µM in assay [2] (humanized yeast strain, 40 h).

Regarding `Cc1nn(C)c2cc(-c3noc(C4CCN(C(=O)CC5CNC5)CC4)n3)ccc12` [Compound 680], the IC50 in assay [1] (setting [3]) and in assay [2] (setting [4]) was over 45 µM in each case.

Regarding `CC(C)n1ncc2ccc(-c3noc(C4CCN(C(=O)CNC(=O)c5ccc(C#N)cc5)CC4(F)F)n3)cc21` (stereo not shown) [Compound 552], the IC50 in assay [1] (setting [5]) and in assay [2] (setting [6]) was over 45 µM each time.

As to `O=C(N1CCC(c2noc(-c3ccnc(C4CCOC4)c3)n2)CC1)C1(C(F)(F)F)CCC1` (stereo not shown) [Compound 1176], the IC50 in assay [1] (humanized yeast strain, 40 h) was over 45 µM; in assay [2] (humanized yeast strain, 40 h) it was 0.14 µM.

In the case of `CC1(CC(=O)N2CCN(c3nc(-c4ccc5cnn(C6COC6)c5c4)no3)CC2)CC1` [Compound 693], the results for the IC50 in assay [1] (setting [3]) and in assay [2] (setting [4]) were over 45 µM and 1.67 µM, respectively.

Take `CC(C)(C)OC(=O)N1CC=C(c2nsc(-c3ccc4cnn(C5COC5)c4c3)n2)CC1` [Compound 790]: the IC50 was over 45 µM in assay [1] (humanized yeast strain, 40 h) and 0.053 µM in assay [2] (humanized yeast strain, 40 h).

Consider `O=C(N1CCC(c2noc(-c3cc(F)c4cnn(C5COC5)c4c3)n2)CC1)C1(F)CC1` [Compound 1062], for which the IC50 in assay [1] (humanized yeast strain, 40 h) amounted to 29 µM; in assay [2] (humanized yeast strain, 40 h), 0.01 µM.

On to `Cn1ncc2ccc(-c3noc(C4CCN(C(=O)OC(C)(C)C)CC4)n3)cc21` [Compound 359], for which the “SCD1 % Max Inhibition” value in assay [1] (setting [5]) was determined as 55.70%. Moreover, in assay [2] (setting [6]), the IC50 is over 45 µM and the “SCD5 % Max Inhibition” value is given as 0.81%.

Take `CC(C)N1C(=O)Cc2ccc(-c3noc(C4CCN(C(=O)c5ccccc5Cl)CC4)n3)cc21` [Compound 612]: the IC50 in assay [1] (setting [3]) was over 45 µM; in assay [2] (setting [4]), 2.38 µM.

With `Cc1nn(C)c2cc(-c3nc(C4CCN(S(=O)(=O)C5CC5)CC4)no3)ccc12` [Compound 922], the IC50 in assay [1] (humanized yeast strain, 40 h) was over 45 µM; in assay [2] (humanized yeast strain, 40 h), 6.56 µM.

Consider `COC(=O)N1CCC(c2noc(-c3ccc4cnc(C5COC5)n4c3)n2)CC1` [Compound 917], for which the IC50 is over 45 µM in assay [1] (humanized yeast strain, 40 h) and 0.1 µM in assay [2] (humanized yeast strain, 40 h).

For the molecule `CC(C)(C)OC(=O)N1CC=C(c2ccc(-c3ccc4cnn(C5COC5)c4c3)cn2)CC1` [Compound 955], the 50% inhibitory concentration (IC50) was over 45 µM in assay [1] (humanized yeast strain, 40 h) and over 45 µM in assay [2] (humanized yeast strain, 40 h).

Consider `CC1(OC(=O)N2CCC(c3nc(-c4cccc(C5CCOC5)c4)no3)CC2)CC1` (stereo not shown) [Compound 846], for which the IC50 is over 45 µM in assay [1] (humanized yeast strain, 40 h) and 0.04 µM in assay [2] (humanized yeast strain, 40 h).

Consider `CC(C)n1ncc2ccc(-c3noc(C4CCN(C(C)C(F)(F)F)CC4)n3)cc21` (stereo not shown) [Compound 1051], for which the IC50 in assay [1] (humanized yeast strain, 40 h) was over 45 µM; in assay [2] (humanized yeast strain, 40 h), 7.5 µM.

Take `COC1(C(=O)N2CCN(c3noc(-c4ccc5cnn(C6COC6)c5c4)n3)CC2)CC1` [Compound 884]: the IC50 in assay [1] (humanized yeast strain, 40 h) was over 45 µM; in assay [2] (humanized yeast strain, 40 h) it was 0.01 µM.

Consider `O=C(c1sccc1Cl)N1CCC(c2noc(-c3ccc4cnn(C5COC5)c4c3)n2)CC1` [Compound 698], for which the IC50 in assay [1] (setting [3]) was over 45 µM; in assay [2] (setting [4]) it was 0.026 µM.

Regarding `CO[C@H]1C[C@H](n2ncc3ccc(-c4noc(C5CCN(C(=O)OC(C)(C)C)CC5)n4)cc32)C1` [Compound 859], the half-maximal inhibitory concentration (IC50) is over 45 µM in assay [1] (humanized yeast strain, 40 h) and over 4 µM in assay [2] (humanized yeast strain, 40 h).

On to `O=C(N1CCC(c2noc(-c3ccc4cnn(C5CCOC5)c4c3)n2)CC1)C1(F)CCC1` (stereo not shown) [Compound 1028], for which the IC50 in assay [1] (humanized yeast strain, 40 h) was determined as 0.953 µM; in assay [2] (humanized yeast strain, 40 h), 0.01 µM.

Consider `CC(C)C(=O)N1CCC(c2noc(-c3cccc(C4CCOC4)n3)n2)CC1` (stereo not shown) [Compound 1188], for which the IC50 is over 45 µM in assay [1] (humanized yeast strain, 40 h) and over 45 µM in assay [2] (humanized yeast strain, 40 h).

`CC(C)(C)OC(=O)N1CCC(c2nc(-c3ccc4cnc(Br)n4c3)no2)CC1` [Compound 865]: the 50% inhibitory concentration (IC50) in assay [1] (humanized yeast strain, 40 h) is over 45 µM; in assay [2] (humanized yeast strain, 40 h), 0.01 µM.

Consider `CC(C)N1C(=O)Cc2ccc(-c3noc(C4CCN(C(=O)CC(C)(C)C)CC4)n3)cc21` [Compound 611], for which the IC50 in assay [1] (setting [3]) is over 45 µM; in assay [2] (setting [4]), 7.48 µM.

In the case of `O=C(C1CCC1)N1CCC(c2nc(-c3ccc4cnn(C5COC5)c4c3)no2)CC1` [Compound 1044], the IC50 in assay [1] (humanized yeast strain, 40 h) is over 45 µM; in assay [2] (humanized yeast strain, 40 h), 0.593 µM.

On to `O=C(N1CCN(c2noc(-c3ccc4cnn(C5COC5)c4c3)n2)CC1)C1(F)CC1` [Compound 970], for which the IC50 is 8.5 µM in assay [1] (humanized yeast strain, 40 h) and 0.00196 µM in assay [2] (humanized yeast strain, 40 h).

The term IC50 denotes the concentration that inhibits the measured activity by half. High values mean weaker potency, low ones greater potency.
